From patent EP0745595A1, “3-(3-Aryloxyphenyl)-1-(substituted methyl)-s-triazine-2,4,6-oxo or thiotrione herbicidal agents” (American Cyanamid Company, priority 1995, dated 1996)

Columns and labels:
Type in all cases: in vivo
[1] = test system: ABUTILON THEOPHRASTI, MEDIC.; assay: Postemergence herbicidal evaluation, ABUTH (Velvetleaf)
Summary of the method: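 This postemergence herbicide test used two-week-old velvetleaf seedlings grown in jiffy flats. Each compound was sprayed at 40 psi as a dispersion in 50/50 acetone/water with 0.5% TWEEN®20 surfactant. Plants then received routine greenhouse care. After four to five weeks, injury was scored visually on a 0-9 scale against a control, and replicate tests were averaged.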

[2] = test system: AMBROSIA ARTEMISIIFOLIA, L.; assay: Postemergence herbicidal evaluation, AMBEL (Ragweed, Common)
Summary of the method: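 Postemergence herbicidal activity on AMBEL (common ragweed) was assessed on two-week-old seedlings grown in jiffy flats. Treatment solutions of 50/50 acetone/water with 0.5% TWEEN®20 surfactant were sprayed at 40 psi. After four to five weeks in the greenhouse, plants were scored 0-9 against a control for stand, vigor, malformation, size, chlorosis and overall appearance, with multiple tests averaged.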

CASSIA OBTUSIFOLIA, L. = assay: Postemergence herbicidal evaluation, CASOB (Sicklepod); parameters: key to CASOB rating / Herbicidal effect rating, CASOB / CASOB: 0-9 visual rating scale vs untreated control
Summary of the method: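 Spray: acetone/water 50/50 + 0.5% TWEEN 20; rate ~0.125–0.500 kg/ha; nozzle 40 psi; ~2-wk seedlings. Read: visual 0–9 rating at 4–5 wk post-treatment vs control; replicate tests averaged.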

CHENOPODIUM ALBUM, L. = assay: Postemergence herbicidal evaluation, CHEAL (Lambsquarters, Common)
Summary of the method: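 Postemergence herbicidal activity on Chenopodium album was tested by spraying two-week-old seedlings grown in jiffy flats with compound in acetone/water (50/50) plus 0.5% TWEEN®20, using a 40 psi nozzle. Four to five weeks after treatment, stand, vigor, malformation, size, chlorosis and overall appearance were scored 0-9 relative to controls, with repeat tests averaged.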

IPOMOEA SPP. = assay: Postemergence herbicidal evaluation, IPOSS (Morningglory spp.)
Summary of the method: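 In this greenhouse postemergence herbicide test on Ipomoea spp. (morningglory), compounds in 50/50 acetone/water with 0.5% TWEEN®20 were sprayed at 40 psi onto seedlings about two weeks old grown in jiffy flats. After four to five weeks, injury was scored on a 0-9 scale covering stand, vigor, malformation, size, chlorosis and overall appearance versus control, with repeat tests averaged.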

GALIUM APARINE = assay: Postemergence herbicidal evaluation, GALAP (Galium); parameters: key to GALAP rating / Herbicidal effect rating, GALAP / GALAP: 0-9 visual rating scale vs untreated control
Procedure: (§1) In the tests, seedling plants are grown in jiffy flats for about two weeks. The test compounds are dispersed in 50/50 acetone/water mixtures containing 0.5% TWEEN®20, a polyoxyethylene sorbitan monolaurate surfactant of Atlas Chemical Industries, in sufficient quantities to provide the equivalent of about 0.125 kg to 0.500 kg per hectare of active compound when applied to the plants through a spray nozzle operating at 40 psi for a predetermined time. After spraying, the plants are placed on greenhouse benches and are cared for in the usual manner, commensurate with conventional greenhouse practices. From four to five weeks after treatment, the seedling plants are examined and rated according to the rating system set forth below. Where more than one test is involved for a given compound, the data are averaged.
(§2) Plant species employed in these evaluations are reported by header abbreviation, common name and scientific name.
(§3) Results of herbicide evaluation are expressed on a rating scale (0-9). The scale is based upon a visual observation of plant stand, vigor, malformation, size, chlorosis and overall plant appearance as compared with a control.

[3] = test system: ECHINOCHLOA CRUS-GALLI, (L) BEAU; assay: Postemergence herbicidal evaluation, ECHCG (Barnyardgrass); parameters: key to ECHCG rating / Herbicidal effect rating, ECHCG / ECHCG: 0-9 visual rating scale vs untreated control
Procedure: as §1, §2, §3

[4] = test system: SETARIA VIRIDIS, (L) BEAU; assay: Postemergence herbicidal evaluation, SETVI (Foxtail, Green); parameters: key to SETVI rating / Herbicidal effect rating, SETVI / SETVI: 0-9 visual rating scale vs untreated control
Procedure: as §1, §2, §3

[5] = test system: GLYCINE MAX(L) MERR. CV. WILLIAMS; assay: Postemergence herbicidal evaluation, GLXMAW (Soybean, Williams); parameters: key to GLXMAW rating / Herbicidal effect rating, GLXMAW / GLXMAW: 0-9 visual rating scale vs untreated control
Procedure: as §1, §2, §3

[6] = test system: ECHINOCHLOA ORYZOIDES (ARD.)FRITSCH; assay: Preemergence weed control under flooded paddy conditions, ECHORC (Watergrass (Calif.)); settings: 0.500 kg/ha, preemergence, 3-4 weeks after treatment
Procedure: as §3
(§4) Preemergence herbicidal activity under flooded paddy conditions is determined as follows: plant seeds or propagating organs are planted in the top 0.5 cm of silt loam soil in 32 oz. plastic containers with a diameter of 10.5 cm and no drainage holes. Water is added to these containers and maintained at 1.5 to 3 cm above the soil surface for the duration of the experiment. […] The treated containers are placed on greenhouse benches and cared for according to normal greenhouse procedures.- Three to four weeks after treatment the test is terminated and each container is examined and herbicidal effect rated according to the rating system provided in Example 40. The compounds evaluated are reported by compound number given in Example 40.
(§5) Plant species employed in this example are reported by header abbreviation, common name and scientific name.

CYPERUS IRIA = assay: Preemergence weed control under flooded paddy conditions, CYPIR (Rice Flatsedge); settings: 0.500 kg/ha, preemergence, 3-4 weeks after treatment
Procedure: as §3, §4, §5

[7] = test system: CYPERUS SEROTINUS, ROTTB.; assay: Preemergence weed control under flooded paddy conditions, CYPSE (Flatsedge); settings: 0.500 kg/ha, preemergence, 3-4 weeks after treatment
Procedure: as §3, §4, §5

[…], PRESL. = Preemergence weed control under flooded paddy conditions, MOOVA (Monochoria); settings: 0.500 kg/ha, preemergence, 3-4 weeks after treatment
Procedure: as §3
Preemergence herbicidal activity under flooded paddy conditions is determined as follows: plant seeds or propagating organs are planted in the top 0.5 cm of silt loam soil in 32 oz. plastic containers with a diameter of 10.5 cm and no drainage holes. Water is added to these containers and maintained at 1.5 to 3 cm above the soil surface for the duration of the experiment. The test compounds are applied as aqueous/acetone mixtures 50/50 v/v pipetted directly into the flood water to give the equivalent of about 0.5, 0.25, 0.125 and 0.063 kg/ha of active ingredient. The treated containers are placed on greenhouse benches and cared for according to normal greenhouse procedures.- Three to four weeks after treatment the test is terminated and each container is examined and herbicidal effect rated according to the rating system provided in Example 40. The compounds evaluated are reported by compound number given in Example 40.
as §5

SAGITTARIA PYGMAEA, L. = assay: Preemergence weed control under flooded paddy conditions, SAGPY (Arrowhead (Pygmaea)); settings: 0.500 kg/ha, preemergence, 3-4 weeks after treatment
Procedure: as §3, §4, §5

[8] = test system: ORYZA SATIVA, L. TEBONNET; assay: Rice tolerance to post-transplant applications under flooded paddy conditions, ORYSAT (Rice, Tebonnet); settings: 0.500 kg/ha, post-transplant rice, 3-4 weeks after treatment
Summary of the method: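 Visual 0-9 rating against untreated control (stand, vigor, malformation, size, chlorosis, overall appearance), taken 3-4 weeks after treatment. Flooded silt loam, water at 1.5-3 cm; two 10-day-old seedlings per pot; compound applied to flooded soil surface 3 days post-transplant at ~0.5-0.063 kg/ha.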

[9] = test system: ECHINOCHLOA CRUS-GALLI, (L) BEAU; assay: Preemergence herbicidal evaluation, ECHCG (Barnyardgrass); settings: rated four to five weeks after treatment
Source text: as §3
(§6) The preemergence herbicidal activity of the test compounds of the present invention is exemplified by the following tests in which the seeds of a variety of monocotyledonous and dicotyledonous plants are separately mixed with potting soil and planted on top of approximately one inch of soil in separate pint cups. […] The treated cups are then placed on greenhouse benches, watered and cared for in accordance with conventional greenhouse procedures. From four to five weeks after treatment, the tests are terminated and each cup is examined and rated according to the rating system provided in Example 40.
(§7) The compounds evaluated are reported by compound number given in Example 40.

[10] = test system: GLYCINE MAX(L) MERR. CV. WILLIAMS; assay: Preemergence herbicidal evaluation, GLXMAW (Soybean, Williams); settings: rated four to five weeks after treatment
Source text: as §3, §6, §7

[11] = test system: ORYZA SATIVA, L. TEBONNET; assay: Postemergence herbicidal evaluation, ORYSAT (Rice, Tebonnet); parameters: key: 0-9 visual rating scale vs untreated control
Procedure: as §1, §2, §3

SMILES: COC(=O)Cn1c(=O)n(C)c(=O)n(-c2cc(Oc3cc(Cl)cc(Cl)c3Cl)ccc2[N+](=O)[O-])c1=O [Compound 25, Methyl 3-[2-nitro-5-(2,3,5-trichloro-phenoxy)phenyl]tetrahydro-5-methyl-2,4,6-trioxo-s-triazine-1(2H)-acetate]
- ABUTH rating ([1]; Rate 0.125 kg/ha): 0.0
- ABUTH rating ([1]; Rate 0.250 kg/ha): 0.0
- ABUTH rating ([1]; Rate 0.500 kg/ha): 0.0
- AMBEL rating ([2]; Rate 0.125 kg/ha): 0.0
- AMBEL rating ([2]; Rate 0.250 kg/ha): 0.0
- AMBEL rating ([2]; Rate 0.500 kg/ha): 0.0
- CASOB rating (CASSIA OBTUSIFOLIA, L.; Rate 0.125 kg/ha): 0.0
- CASOB rating (CASSIA OBTUSIFOLIA, L.; Rate 0.250 kg/ha): 0.0
- CASOB rating (CASSIA OBTUSIFOLIA, L.; Rate 0.500 kg/ha): 0.0
- CHEAL rating (CHENOPODIUM ALBUM, L.; Rate 0.125 kg/ha): 0.0
- CHEAL rating (CHENOPODIUM ALBUM, L.; Rate 0.250 kg/ha): 0.0
- CHEAL rating (CHENOPODIUM ALBUM, L.; Rate 0.500 kg/ha): 0.0
- IPOSS rating (IPOMOEA SPP.; Rate 0.125 kg/ha): 0.0
- IPOSS rating (IPOMOEA SPP.; Rate 0.250 kg/ha): 0.0
- IPOSS rating (IPOMOEA SPP.; Rate 0.500 kg/ha): 0.0
- GALAP rating (GALIUM APARINE; Rate 0.125 kg/ha): 0.0
- GALAP rating (GALIUM APARINE; Rate 0.250 kg/ha): 0.0
- GALAP rating (GALIUM APARINE; Rate 0.500 kg/ha): 0.0
- ECHCG rating ([3]; Rate 0.125 kg/ha): 0.0
- ECHCG rating ([3]; Rate 0.250 kg/ha): 0.0
- ECHCG rating ([3]; Rate 0.500 kg/ha): 0.0
- SETVI rating ([4]; Rate 0.125 kg/ha): 0.0
- SETVI rating ([4]; Rate 0.250 kg/ha): 0.0
- SETVI rating ([4]; Rate 0.500 kg/ha): 0.0
- GLXMAW rating ([5]; Rate 0.125 kg/ha): 0.0
- GLXMAW rating ([5]; Rate 0.250 kg/ha): 0.0
- GLXMAW rating ([5]; Rate 0.500 kg/ha): 0.0
- Herbicidal effect rating, ECHORC [6]: 0.0
- Herbicidal effect rating, CYPIR (CYPERUS IRIA): 0.0
- Herbicidal effect rating, CYPSE [7]: 0.0
- Herbicidal effect rating, MOOVA ([…], PRESL.): 0.0
- Herbicidal effect rating, SAGPY (SAGITTARIA PYGMAEA, L.): 0.0
- Herbicidal effect rating, ORYSAT [8]: 0.0

SMILES: COC(=O)Cn1c(=O)n(C)c(=O)n(-c2cc(Oc3cc(OC)c(Cl)cc3Cl)ccc2[N+](=O)[O-])c1=O [Compound 29, Methyl 3-[5-(2,4-dichloro-5-methoxyphenoxy)-2-nitrophenyl]tetrahydro-5-methyl-2,4,6-trioxo-s-triazine-1(2H)-acetate]
- ECHCG herbicidal rating ([9]; Rate 0.125 kg/ha): 0.0
- ECHCG herbicidal rating ([9]; Rate 0.250 kg/ha): 0.0
- ECHCG herbicidal rating ([9]; Rate 0.500 kg/ha): 0.0
- GLXMAW herbicidal rating ([10]; Rate 0.125 kg/ha): 0.0
- GLXMAW herbicidal rating ([10]; Rate 0.250 kg/ha): 0.0
- GLXMAW herbicidal rating ([10]; Rate 0.500 kg/ha): 0.0
- Herbicidal effect rating, ECHORC [6]: 0.0
- Herbicidal effect rating, CYPIR (CYPERUS IRIA): 0.0
- Herbicidal effect rating, CYPSE [7]: 0.0
- Herbicidal effect rating, MOOVA ([…], PRESL.): 0.0
- Herbicidal effect rating, SAGPY (SAGITTARIA PYGMAEA, L.): 0.0
- Herbicidal effect rating, ORYSAT [8]: 0.0

SMILES: COC(=O)Cn1c(=O)n(C)c(=O)n(-c2cc(Oc3cc(F)c(F)cc3F)ccc2[N+](=O)[O-])c1=O [Compound 30]
- ORYSAT rating ([11]; Rate 0.125 kg/ha): 3.0
- ORYSAT rating ([11]; Rate 0.250 kg/ha): 3.0
- ORYSAT rating ([11]; Rate 0.500 kg/ha): 3.0
- Herbicidal effect rating, ECHORC [6]: 0.0
- Herbicidal effect rating, CYPIR (CYPERUS IRIA): 0.0
- Herbicidal effect rating, CYPSE [7]: 0.0
- Herbicidal effect rating, MOOVA ([…], PRESL.): 0.0
- Herbicidal effect rating, SAGPY (SAGITTARIA PYGMAEA, L.): 0.0
- Herbicidal effect rating, ORYSAT [8]: 1.0
